In the NIST ThermoML archive (doi:10.1021/je2013878) one finds activity coefficient data, which are given here for seven compounds.

Each structure is given as a SMILES string. Numbers after ± are expanded uncertainties.

This data set is described as follows: activity coefficient (dimensionless); of the first substance listed, at infinite dilution; xn = mol fraction of the nth substance listed. To be noted: 313.15 K; 101 kPa; Liquid; Chromatography; x1 = 0.
As to `C=CC(O)CCCCC` (configuration not stated) [1-octen-3-ol] + O, the activity coefficient stood at 2160 ± 230.

For the compound `C=CC(O)CC` (configuration not stated) [1-penten-3-ol] + O, the activity coefficient came out at 49 ± 5.

For `CCC(=O)C(C)=O` [2,3-pentanedione] + O, the activity coefficient was determined as 160 ± 17.

Turning to `CC(C)CC=O` [3-methylbutanal] + O, the activity coefficient came to 179 ± 19.

On to `O=Cc1ccccc1` [benzaldehyde] + O, for which the activity coefficient stood at 570 ± 60.

Turning to `CCOC(C)=O` [ethyl acetate] + O, the activity coefficient came to 71 ± 7.

Regarding `CCCCCC=O` [hexanal] + O, the activity coefficient is 601 ± 63.
